One compound from paper PMC12363935, “Unc-51 Like Kinase 3 (ULK3) is essential for autophagy and cell survival in multiple myeloma” (Research Square, 2025) can be followed below.

One data set concerns U266-Luc MM cells. Nature of the data set: U266-Luc in vivo model, tail vein injection. The conditions noted are these: 10 mg/kg/day subcutaneously, M-F. The method, then: For the U266-Luc model, 1 × 10^6 cells (100 μl/PBS) were tail vein injected into 4- to 6-week-old female and male NSG mice. […] Endpoint was represented by hind limb paralysis or >20% weight loss. When sacrificed, tumors tibiae were harvested and fixed in 10% neutral buffered formalin for 24 hours. Bioluminescent signal is reported as the average of the sum of dorsal and ventral signal of the mice/group/timepoint. […]
28 Animal Experimentation: All animal experiments were performed with approval from the
29 Moffitt/University of South Florida Institutional Animal Care and Use Committee (Protocol
31 validation of MA9 efficacy (Figure 4), we initially included n = 10 mice per treatment group:
Randomization based on sex, weight,
33 and initial tumor burden was conducted, followed by treatment with either vehicle control (n = 6),
35 Tumor progression was tracked via bioluminescence: endpoint was paralysis or >20% weight loss.
36 Experiments were blinded. […]
38 For MA9 therapy efficacy, mice were treated with vehicle (n=10) or MA9 (10 mg/kg/day,
39 subcutaneously, M-F from day 20; n=10) (Supplementary Fig. 7E, F). Survival and toxicity
40 (weight, clinical signs) was monitored.
43 Luciferase-labeled MM cells 5TGM1-Luc (RRID: CVCL_VI66) and U266-Luc (RRID: […]
51 cells (all from the ATCC, USA) were routinely cultured at 37 °C in Roswell Park Memorial
53 FBS1) and penicillin/streptomycin (hereafter, complete medium).
54 Cells were not used for five days following PI-treatment. All myeloma cell lines were […]

In data set [1] the test system is CD138+ cells isolated from RRMM patient Pt1050. Nature of the data set: Immunoblot densitometry, patient cells. It counts as cell-based, human. Particulars: Pt1050, 1μM; for ULK3 densitometry: CTRL 0.03; for ULK1 densitometry: CTRL 0.28. The method, then: Figure 7. MA9–060 treatment compromises the survival of patient NDMM and RRMM cells ex vivo. A. Representative viability (live cell imaging) response of CD138^+ cells from NDMM patient (Pt620) cultured and tested in autologous stromal microenvironment in EMMA’s ex vivo platform, exposed to three different concentrations of MA9–060 (0.7, 2.2, 6.7 μM). […] (not shown here – 20 μM). B. Ex vivo EMMA platform assay to quantify the chemosensitivity of primary CD138^+ MM cells plated in a collagen matrix with bone marrow stroma and patient plasma. […] C. […] H. Immunoblot showing levels of indicated proteins in CD138^+ cells isolated from RRMM patients (Pt971, Pt1050). Pt1050 CD138^+ cells were assessed for ULK3-mediated autophagy related proteins (ATGs), following treatment with MA9–060 (1μM at 2 and 6 hours).
157 5872S). Protein concentration was quantified by Thermo Scientific™ Pierce™ BCA™ Protein
30 μg protein was loaded to 10%-15% gel and ran at
159 100V for 2 hours. Later protein was transferred to PVDF membrane and blocked with 5% skimmed
160 milk in TBST (10 mM Tris/HCl pH8.0, 0.12M NaCl, 0.1% Tween 20) containing 5% BSA [8] for
163 at 4°C overnight. Membranes were washed 3 times,10 minutes with TBS. Then incubated with
164 appropriate secondary antibodies at 1:1000 ratio in skimmed milk or 2% BSA. The membranes
165 were washed again 3 times for 10 minutes with TBST. ECL reagents were added to the membrane
166 and blot was developed by LICOR Imaging Studio.
167 All immunoblotting assays were performed at least in three replicates and representative
168 images are shown. Commercially available antibodies and their dilutions are listed in
169 Supplementary Table 5. Immunoblotting images were acquired and quantified using LICOR
170 Image Studio Quant software. […]
(In general: Immunoblotting shows a protein as a band on a membrane.)

Another data set concerns the target T1, JAK2 (Homo sapiens, UniProt O60674).
T1 construct: purchased Reaction Biology Corporation
Briefly: Kinase profiling assay (Reaction Biology), 10-dose IC50, 10 μM ATP. The data set is classed as biochemical. The conditions noted are these: NA = no activity. The method, then:
310 and refinement were performed with COOT [14] and Phenix.Refine to obtain a clear electron
311 density map (1Fo-Fc) for compound MA9-060, which was built into the structure near the end of
312 iterative cycles of model building and refinement. Crystal parameters, data collection statistics and
313 refinement statistics are summarized in Supplementary Fig. 4D and deposited in the protein
314 databank with PDB code 8V1M.
317 The compounds under investigation were tested by Reaction Biology Corporation against four
318 specific kinases in this study (JAK2, ULK1, ULK2, ULK3). Each compound was provided as a
319 10 mM stock solution. To facilitate dissolution, the compounds were subjected to gentle heating.
320 Subsequent testing involved the evaluation of the compounds using a 10-dose IC50 mode,
Additionally, the control compound,
Throughout these experiments, reactions were conducted using a standardized concentration
325 The data collected during these assays encompass raw data, % enzyme activity (relative to DMSO
327 activities at the highest concentration of compounds were less than 65%. The IC50 summary,
328 detailing the inhibitory concentrations of the compounds against the respective kinases, is
331 Bromodomain profiling assay
333 evaluated against Bromodomain 1 by Reaction Biology Corporation.
334 The compounds were subjected to testing using a 10-dose IC50 singlet approach, involving a 3-
335 fold serial dilution starting at 10 μM, specifically against BRD4-1. Additionally, as a benchmark,
337 dilution starting at 10 μM.
338 For ligand and detection purposes, the H4/4Ac ligand, representing the Histone H4 peptide (1-21)
339 with acetylation at lysine residues K5, K8, K12, and K16, and tagged with Biotin, was utilized.

T1 sequence (O60674 whole entry): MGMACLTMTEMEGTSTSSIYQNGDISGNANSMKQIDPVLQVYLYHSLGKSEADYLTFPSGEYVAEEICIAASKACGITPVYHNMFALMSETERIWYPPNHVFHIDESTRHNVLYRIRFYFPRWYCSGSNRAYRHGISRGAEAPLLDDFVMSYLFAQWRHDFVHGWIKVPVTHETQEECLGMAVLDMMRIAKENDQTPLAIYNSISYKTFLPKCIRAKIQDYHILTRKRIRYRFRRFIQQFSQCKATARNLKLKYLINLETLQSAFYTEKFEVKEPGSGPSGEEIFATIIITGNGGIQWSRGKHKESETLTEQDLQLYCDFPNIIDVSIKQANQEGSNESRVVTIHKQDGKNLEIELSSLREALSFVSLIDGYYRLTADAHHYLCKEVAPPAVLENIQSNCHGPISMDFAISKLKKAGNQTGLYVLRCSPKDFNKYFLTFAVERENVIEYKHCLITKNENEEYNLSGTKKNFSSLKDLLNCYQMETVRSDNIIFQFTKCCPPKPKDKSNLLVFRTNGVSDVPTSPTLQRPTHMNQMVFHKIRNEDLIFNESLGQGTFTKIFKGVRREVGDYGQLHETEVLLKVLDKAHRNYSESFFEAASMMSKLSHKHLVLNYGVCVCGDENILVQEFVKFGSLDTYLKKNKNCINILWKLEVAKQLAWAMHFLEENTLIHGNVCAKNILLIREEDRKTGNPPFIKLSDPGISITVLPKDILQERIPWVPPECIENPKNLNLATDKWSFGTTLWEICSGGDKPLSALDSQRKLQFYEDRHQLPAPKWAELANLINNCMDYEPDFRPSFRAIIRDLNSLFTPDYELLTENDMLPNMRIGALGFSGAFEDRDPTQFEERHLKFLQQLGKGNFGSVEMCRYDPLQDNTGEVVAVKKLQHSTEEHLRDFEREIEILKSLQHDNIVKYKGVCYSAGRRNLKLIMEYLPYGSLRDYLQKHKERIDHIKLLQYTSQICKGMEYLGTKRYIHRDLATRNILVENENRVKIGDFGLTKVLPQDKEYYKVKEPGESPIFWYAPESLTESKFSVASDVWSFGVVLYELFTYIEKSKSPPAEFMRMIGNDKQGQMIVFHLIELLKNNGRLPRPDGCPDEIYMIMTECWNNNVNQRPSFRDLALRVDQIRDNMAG

Usually IC50 stands for the midpoint of a concentration-inhibition curve. As for `Cc1cnc(Nc2ccc(C3CCN(C)CC3)c(F)c2)nc1Nc1ccc(Cl)c(NS(=O)(=O)C(C)(C)C)c1` [MA9060], in the data set with U266-Luc MM cells, the “MM-induced osteolysis (X-ray, histology)” value is “significantly protected against MM-induced osteolysis”; the “toxicity (weight loss, lethargy, ruffled hair)” value is recorded as “did not show any sign of toxicity”; the “tumor growth (bioluminescence) vs control” value was “significantly impaired tumor growth”. Besides, the “toxicity (weight loss, lethargy, ruffled hair)” value in the data set on U266-Luc MM cells (listed as MA9) was “no overt toxicities”. Besides, in data set [1] (2h), the ULK3 densitometry worked out at 0.03 and the ULK1 densitometry was 0.67. In data set [1] (6h), the ULK3 densitometry was determined as 0.03 and the ULK1 densitometry is recorded as 0.35. The same compound came in with an IC50 against JAK2 of 6.7 nM.
